Data taken from ChEMBL document CHEMBL1201862, “PubChem BioAssay data set” (2004).
Active and inactive are the calls of the source.

What was measured:
Caspase-3 = biological target: T1, Caspase-3 (Homo sapiens, UniProt P42574); assay type: functional;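 note: Dose-response selectivity test against caspase-3 for candidate inhibitors of sentrin-specific proteases (SENPs)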
T1 sequence (P42574 whole entry): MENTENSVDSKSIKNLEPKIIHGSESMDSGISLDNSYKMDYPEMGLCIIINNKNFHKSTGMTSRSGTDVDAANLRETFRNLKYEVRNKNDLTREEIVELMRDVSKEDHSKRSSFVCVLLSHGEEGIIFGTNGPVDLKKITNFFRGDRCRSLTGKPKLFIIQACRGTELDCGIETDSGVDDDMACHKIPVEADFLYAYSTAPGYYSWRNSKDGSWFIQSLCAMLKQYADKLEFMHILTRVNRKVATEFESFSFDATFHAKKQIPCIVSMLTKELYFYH

[1] = biological target: T2, Sentrin-specific protease 7 (Homo sapiens, UniProt Q9BQF6); assay type: functional;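 note: Luminescence-based dose-response confirmation of ultra-high-throughput screening hits, measuring inhibition of SENP7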
T2 sequence (Q9BQF6 whole entry): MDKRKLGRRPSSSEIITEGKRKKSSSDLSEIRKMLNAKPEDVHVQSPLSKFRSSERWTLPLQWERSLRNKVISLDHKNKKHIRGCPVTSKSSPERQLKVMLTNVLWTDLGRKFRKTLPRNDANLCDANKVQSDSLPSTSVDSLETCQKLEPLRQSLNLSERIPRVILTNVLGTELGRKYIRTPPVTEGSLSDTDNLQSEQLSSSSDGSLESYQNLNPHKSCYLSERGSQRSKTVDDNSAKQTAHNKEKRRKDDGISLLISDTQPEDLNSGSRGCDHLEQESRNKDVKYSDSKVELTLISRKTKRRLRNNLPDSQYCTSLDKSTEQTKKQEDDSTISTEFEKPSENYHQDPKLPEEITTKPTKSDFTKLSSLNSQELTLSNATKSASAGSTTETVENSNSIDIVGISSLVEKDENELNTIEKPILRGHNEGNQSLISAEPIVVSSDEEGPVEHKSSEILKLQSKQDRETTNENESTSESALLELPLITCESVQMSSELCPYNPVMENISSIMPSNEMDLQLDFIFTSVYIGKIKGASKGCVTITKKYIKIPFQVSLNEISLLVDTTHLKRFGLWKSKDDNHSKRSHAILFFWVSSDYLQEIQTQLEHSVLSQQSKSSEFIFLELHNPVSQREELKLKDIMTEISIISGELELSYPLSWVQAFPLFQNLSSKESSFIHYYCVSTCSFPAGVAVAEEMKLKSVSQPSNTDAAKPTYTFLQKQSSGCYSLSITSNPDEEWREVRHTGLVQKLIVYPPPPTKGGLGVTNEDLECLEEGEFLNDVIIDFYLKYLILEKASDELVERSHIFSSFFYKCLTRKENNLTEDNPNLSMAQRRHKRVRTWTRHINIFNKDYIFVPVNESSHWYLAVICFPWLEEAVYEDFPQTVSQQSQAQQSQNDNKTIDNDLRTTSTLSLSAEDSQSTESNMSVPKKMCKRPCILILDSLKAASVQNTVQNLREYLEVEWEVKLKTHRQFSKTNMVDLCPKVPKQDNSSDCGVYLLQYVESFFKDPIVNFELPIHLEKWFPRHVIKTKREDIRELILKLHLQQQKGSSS

[2] = biological target: T3, Sentrin-specific protease 8 (Homo sapiens, UniProt Q96LD8); assay type: functional;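 note: luminescence read-out of SENP8 inhibition, dose-response confirmation following an ultra-high-throughput screen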
T3 sequence (Q96LD8 whole entry): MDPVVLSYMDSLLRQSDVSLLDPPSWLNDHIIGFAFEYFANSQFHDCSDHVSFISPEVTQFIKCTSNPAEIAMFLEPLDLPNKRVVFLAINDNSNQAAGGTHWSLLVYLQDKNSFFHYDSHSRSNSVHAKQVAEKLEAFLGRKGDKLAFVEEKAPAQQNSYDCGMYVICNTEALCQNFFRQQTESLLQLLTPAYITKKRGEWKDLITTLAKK

[3] = biological target: T4, Sentrin-specific protease 6 (Homo sapiens, UniProt Q9GZR1); assay type: functional;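 note: Luminescence-based dose-response confirmatory assay of SENP6 inhibition, following up an ultra-high-throughput screen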
T4 sequence (Q9GZR1 whole entry): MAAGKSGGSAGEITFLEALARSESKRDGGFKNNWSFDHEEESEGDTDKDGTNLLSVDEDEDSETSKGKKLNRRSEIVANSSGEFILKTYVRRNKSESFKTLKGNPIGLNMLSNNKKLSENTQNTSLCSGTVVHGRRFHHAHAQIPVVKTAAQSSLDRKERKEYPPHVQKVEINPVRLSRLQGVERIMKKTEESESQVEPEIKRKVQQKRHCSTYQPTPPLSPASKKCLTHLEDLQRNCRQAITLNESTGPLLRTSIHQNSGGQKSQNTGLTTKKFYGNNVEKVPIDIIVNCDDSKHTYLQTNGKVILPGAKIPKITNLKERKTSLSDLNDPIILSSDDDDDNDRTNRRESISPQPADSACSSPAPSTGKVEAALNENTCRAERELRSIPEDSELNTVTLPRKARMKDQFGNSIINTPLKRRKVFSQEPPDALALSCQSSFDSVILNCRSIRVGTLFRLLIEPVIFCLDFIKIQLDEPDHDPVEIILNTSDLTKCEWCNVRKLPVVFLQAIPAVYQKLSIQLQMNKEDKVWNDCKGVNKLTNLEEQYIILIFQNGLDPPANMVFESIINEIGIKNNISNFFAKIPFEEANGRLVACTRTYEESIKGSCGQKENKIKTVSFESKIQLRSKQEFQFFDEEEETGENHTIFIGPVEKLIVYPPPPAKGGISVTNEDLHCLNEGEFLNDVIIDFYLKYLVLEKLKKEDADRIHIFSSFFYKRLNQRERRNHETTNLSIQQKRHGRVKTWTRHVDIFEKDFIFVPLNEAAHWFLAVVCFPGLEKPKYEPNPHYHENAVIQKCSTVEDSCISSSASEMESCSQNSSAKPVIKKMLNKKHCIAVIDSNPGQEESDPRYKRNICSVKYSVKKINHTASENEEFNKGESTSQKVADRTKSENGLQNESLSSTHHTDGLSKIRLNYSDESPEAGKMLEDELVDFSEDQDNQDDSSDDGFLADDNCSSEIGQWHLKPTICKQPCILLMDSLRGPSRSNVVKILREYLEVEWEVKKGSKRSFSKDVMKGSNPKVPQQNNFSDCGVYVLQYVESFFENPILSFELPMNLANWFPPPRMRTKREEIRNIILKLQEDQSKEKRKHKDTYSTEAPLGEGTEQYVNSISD

[4] = biological target: T5, Hepatocyte nuclear factor 4-alpha (Homo sapiens, UniProt P41235); assay type: functional, cell-based;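 note: biochemical luminescence-based dose-response counterscreen measuring inhibition of HNF4 dimerization, run alongside a screen for blockers of ABHD5–perilipin-5 interaction; split luciferase complementation of HNF4 fusion proteins in cell lysate measuring dimerization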
T5 sequence (P41235 whole entry): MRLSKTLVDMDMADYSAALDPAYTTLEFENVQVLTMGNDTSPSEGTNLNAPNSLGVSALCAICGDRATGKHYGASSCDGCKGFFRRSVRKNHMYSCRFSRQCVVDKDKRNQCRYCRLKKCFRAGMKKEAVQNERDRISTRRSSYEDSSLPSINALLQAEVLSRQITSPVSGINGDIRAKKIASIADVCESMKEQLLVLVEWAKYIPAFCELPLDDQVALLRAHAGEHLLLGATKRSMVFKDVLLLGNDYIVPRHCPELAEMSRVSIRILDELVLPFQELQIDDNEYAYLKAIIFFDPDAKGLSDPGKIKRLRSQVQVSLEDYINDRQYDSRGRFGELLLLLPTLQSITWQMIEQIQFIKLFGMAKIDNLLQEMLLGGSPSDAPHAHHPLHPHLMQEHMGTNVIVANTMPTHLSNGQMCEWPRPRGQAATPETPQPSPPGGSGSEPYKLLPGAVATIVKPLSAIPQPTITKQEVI

[5] = biological target: T6, Long-chain-fatty-acid--AMP ligase FadD28 (Mycobacterium tuberculosis, UniProt P9WQ59); experiment: Fluorescence polarization aasay to screen for inhibitors that compete for the binding of FadD28 to a bisubstrate Measured in Biochemical System Using Plate Reader - 2147-01_Inhibitor_Dose_CherryPick_Activity.; assay type: functional, Mycobacterium tuberculosis H37Rv
T6 sequence (P9WQ59 whole entry): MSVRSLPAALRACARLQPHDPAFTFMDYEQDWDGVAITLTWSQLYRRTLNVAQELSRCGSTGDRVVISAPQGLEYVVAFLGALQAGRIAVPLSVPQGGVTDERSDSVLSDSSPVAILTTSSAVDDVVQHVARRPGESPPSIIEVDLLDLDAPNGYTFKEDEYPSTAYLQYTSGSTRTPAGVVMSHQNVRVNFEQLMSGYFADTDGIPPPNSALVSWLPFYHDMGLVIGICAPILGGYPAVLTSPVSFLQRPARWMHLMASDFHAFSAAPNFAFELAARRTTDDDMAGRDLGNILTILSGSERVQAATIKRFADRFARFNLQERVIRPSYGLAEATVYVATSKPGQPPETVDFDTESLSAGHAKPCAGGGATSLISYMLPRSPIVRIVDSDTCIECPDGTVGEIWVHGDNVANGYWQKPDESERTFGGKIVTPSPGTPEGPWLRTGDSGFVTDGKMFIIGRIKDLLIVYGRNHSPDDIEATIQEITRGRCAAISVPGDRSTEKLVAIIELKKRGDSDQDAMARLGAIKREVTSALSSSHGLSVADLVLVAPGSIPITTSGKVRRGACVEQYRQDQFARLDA

[6] = biological target: Heat shock protein HSP 90-alpha (Homo sapiens, UniProt P07900); assay type: functional, organism-based
[7] = microbe, parasite or virus in culture; assay type: functional; conditions: Mycobacterium tuberculosis
[8] = biological target: T7, Heat shock factor protein 1 (Mus musculus, UniProt P38532); experiment: inhibition of MG132-induced HSE-luciferase signal, confirmation, cell-based, NIH3T3, luminescence, dose retest (AID 2382); assay type: functional;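 note: NIH3T3 fibroblasts with HSF1-driven luciferase reporter stressed by proteasome inhibitor MG132; luminescence from HSF1-driven luciferase expression after 8 hours of MG132 stress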
T7 sequence (P38532 whole entry): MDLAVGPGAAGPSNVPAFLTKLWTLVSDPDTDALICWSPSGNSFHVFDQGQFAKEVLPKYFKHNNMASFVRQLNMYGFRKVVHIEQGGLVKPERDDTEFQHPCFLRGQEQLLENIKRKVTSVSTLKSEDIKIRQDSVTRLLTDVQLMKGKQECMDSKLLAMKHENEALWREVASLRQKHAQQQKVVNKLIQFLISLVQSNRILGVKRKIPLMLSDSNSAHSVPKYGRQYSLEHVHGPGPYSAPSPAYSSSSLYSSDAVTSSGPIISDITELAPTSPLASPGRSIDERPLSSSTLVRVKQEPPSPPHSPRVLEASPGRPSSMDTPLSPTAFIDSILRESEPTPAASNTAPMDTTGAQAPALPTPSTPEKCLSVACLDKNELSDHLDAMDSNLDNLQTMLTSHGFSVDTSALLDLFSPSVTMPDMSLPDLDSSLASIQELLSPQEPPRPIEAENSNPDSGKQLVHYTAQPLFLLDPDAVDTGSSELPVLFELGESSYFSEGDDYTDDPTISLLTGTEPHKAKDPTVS

[9] = biological target: Luciferin 4-monooxygenase (Photinus pyralis, UniProt P08659); experiment: firefly luciferase enzyme inhibitors, dose response, biochemical, luminescence (AID 1891)
Luciferin 4-monooxygenase, sequence (P08659 whole entry): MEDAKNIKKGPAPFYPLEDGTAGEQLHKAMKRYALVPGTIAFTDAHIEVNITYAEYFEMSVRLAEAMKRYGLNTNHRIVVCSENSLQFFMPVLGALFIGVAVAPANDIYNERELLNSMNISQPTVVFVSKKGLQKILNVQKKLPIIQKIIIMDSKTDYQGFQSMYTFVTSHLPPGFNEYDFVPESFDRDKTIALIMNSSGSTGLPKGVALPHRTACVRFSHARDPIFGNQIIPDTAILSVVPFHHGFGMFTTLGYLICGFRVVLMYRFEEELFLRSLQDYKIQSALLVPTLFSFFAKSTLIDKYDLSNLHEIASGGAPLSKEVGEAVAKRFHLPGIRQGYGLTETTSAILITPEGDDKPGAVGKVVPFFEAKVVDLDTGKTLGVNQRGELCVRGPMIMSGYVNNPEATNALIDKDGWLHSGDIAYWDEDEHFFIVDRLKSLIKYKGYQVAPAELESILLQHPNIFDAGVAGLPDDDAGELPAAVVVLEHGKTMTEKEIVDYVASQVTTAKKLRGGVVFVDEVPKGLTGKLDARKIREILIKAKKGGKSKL

HEK293 = experiment: inhibitors of LMP1-driven NF-kB reporter, dose response, cell-based, HEK293, luciferase, cherry-pick (AID 588343); assay type: functional; conditions: Homo sapiens
[10] = Luminescence Cell-Based Dose Confirmation HTS to Identify Inhibitors of Platelet Dense Granule Release. [Related pubchem assays: 1663 (Primary HTS), 1678 (Summary of Project)]; assay type: functional

Row | Compound | IC50 (Caspase-3) | IC50 [1] | IC50 [2] | IC50 [3] | IC50 [4] | also measured
1 | CCOc1cccc(-c2nc3cc(C)ccc3o2)c1 | 18.2 µM (active) | 7.7 µM (active) | 39.6 µM (active) | 15.6 µM (active) |  | 
2 | COc1ccccc1C=CC(=O)C=Cc1ccccc1OC |  |  |  |  | 6.46 µM (active) | 
3 | Cc1ccc(S(=O)(=O)NC(=NNC(=O)c2cccc(Cl)c2)c2ccccc2)cc1 | 10.3 µM (active) | 5.83 µM (active) | 19.4 µM (active) | 13.6 µM (active) |  | 
4 | Cc1ccc(/C(=N/Nc2nc3ccccc3s2)C2=C(O)c3ccccc3C2=O)cc1 |  |  |  |  |  | AC50 [5]: 41.1 µM (active)
5 | CCC1(C)N=C(c2ccc3c(c2)OCO3)CC(c2ccccc2O)N1 (stereo not drawn) |  |  |  |  | 1.87 µM (active) | 
6 | CCOC(=O)CN1C(=O)S/C(=C\c2ccc(-c3cccc(C(=O)O)c3C)o2)C1=O | 45.4 µM (active) | 6.97 µM (active) | 16.2 µM (active) | 18 µM (active) |  | 
7 | Cc1ccc(C(C[N+](=O)[O-])c2c(N)n(C)c(=O)n(C)c2=O)cc1 (stereo not drawn) |  |  |  |  |  | AC50 [6]: 2.5 µM (active)
8 | Cc1nc(-c2ccccc2)sc1C(=O)/C=C/c1ccccc1 |  |  |  |  | 3.43 µM (active) | CC50 [7]: 36.9 µM (active)
9 | COc1cc2c(cc1OC)-c1cc(Nc3ccc4c(c3)OCCO4)nc(=O)n1CC2 |  |  |  |  |  | EC50 [8]: 2.04 µM (active); EC50 [9]: 17.4 µM (active); AC50 (HEK293): 27.3 µM (active); EC50 [10]: 4.63 µM (active)
10 | Oc1ccc(O)c(C=NNC(=S)NC2CC3CC2C2C=CCC32)c1 (stereo not drawn) |  |  |  |  |  | AC50 [5]: > 100 µM (inactive)
